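Each compound was tested at five concentrations against cells in 96-well plates for 48 hours. At the GI50, growth is halved. TGI denotes the concentration required for complete inhibition of growth.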
Assays:
Experiment in all cases: NCI tumour cell line growth inhibition, 48 h
A498 renal = system: A498 renal
A549 NSCLC = system: A549 NSCLC
ACHN renal = system: ACHN renal
BT-549 breast = system: BT-549 breast
CAKI-1 renal = system: CAKI-1 renal
CCRF-CEM leukemia = system: CCRF-CEM leukemia
DU-145 prostate = system: DU-145 prostate
EKVX NSCLC = system: EKVX NSCLC
HCC-2998 colon = system: HCC-2998 colon
HCT-116 colon = system: HCT-116 colon
HCT-15 colon = system: HCT-15 colon
HL-60(TB) leukemia = system: HL-60(TB) leukemia
HOP-62 NSCLC = system: HOP-62 NSCLC
HOP-92 NSCLC = system: HOP-92 NSCLC
HS 578T breast = system: HS 578T breast
IGROV1 ovarian = system: IGROV1 ovarian
K-562 leukemia = system: K-562 leukemia
KM12 colon = system: KM12 colon
LOX IMVI melanoma = system: LOX IMVI melanoma
MCF7 breast = system: MCF7 breast
MDA-MB-231 breast = system: MDA-MB-231 breast
MDA-MB-435 = system: MDA-MB-435
MOLT-4 leukemia = system: MOLT-4 leukemia
NCI-H226 lung = system: NCI-H226 lung
NCI-H460 lung = system: NCI-H460 lung
NCI-H522 lung = system: NCI-H522 lung
NCI/ADR-RES ovarian = system: NCI/ADR-RES ovarian
OVCAR-3 ovarian = system: OVCAR-3 ovarian
OVCAR-4 ovarian = system: OVCAR-4 ovarian
OVCAR-5 ovarian = system: OVCAR-5 ovarian
OVCAR-8 ovarian = system: OVCAR-8 ovarian
PC-3 prostate = system: PC-3 prostate
RPMI-8226 leukemia = system: RPMI-8226 leukemia
RXF 393 renal = system: RXF 393 renal
SF-295 CNS = system: SF-295 CNS
SF-539 CNS = system: SF-539 CNS
SK-MEL-2 melanoma = system: SK-MEL-2 melanoma
SK-MEL-28 melanoma = system: SK-MEL-28 melanoma
SK-MEL-5 melanoma = system: SK-MEL-5 melanoma
SK-OV-3 ovarian = system: SK-OV-3 ovarian
SN12C renal = system: SN12C renal
SNB-19 CNS = system: SNB-19 CNS
SNB-75 CNS = system: SNB-75 CNS
SR leukemia = system: SR leukemia
SW-620 colon = system: SW-620 colon
TK-10 renal = system: TK-10 renal
U251 CNS = system: U251 CNS
UACC-257 melanoma = system: UACC-257 melanoma
UACC-62 melanoma = system: UACC-62 melanoma
UO-31 renal = system: UO-31 renal
786-0 renal = system: 786-0 renal
COLO 205 colon = system: COLO 205 colon
HT29 colon = system: HT29 colon
M14 melanoma = system: M14 melanoma
MALME-3M melanoma = system: MALME-3M melanoma
NCI-H23 lung = system: NCI-H23 lung
SF-268 CNS = system: SF-268 CNS
T-47D breast = system: T-47D breast

CCOC(=O)c1c(C)nc2c3ccccc3c(C#N)c(C)n12
TGI (A498 renal): > 100 µM | TGI (A549 NSCLC): > 100 µM | TGI (ACHN renal): > 100 µM | TGI (BT-549 breast): > 100 µM | TGI (CAKI-1 renal): > 100 µM | TGI (CCRF-CEM leukemia): > 100 µM | TGI (DU-145 prostate): > 100 µM | TGI (EKVX NSCLC): > 100 µM | TGI (HCC-2998 colon): > 100 µM | TGI (HCT-116 colon): > 100 µM | TGI (HCT-15 colon): > 100 µM | TGI (HL-60(TB) leukemia): > 100 µM | TGI (HOP-62 NSCLC): 70.7 µM | TGI (HOP-92 NSCLC): > 100 µM | TGI (HS 578T breast): > 100 µM | TGI (IGROV1 ovarian): > 100 µM | TGI (K-562 leukemia): > 100 µM | TGI (KM12 colon): > 100 µM | TGI (LOX IMVI melanoma): > 100 µM | TGI (MCF7 breast): > 100 µM | TGI (MDA-MB-231 breast): 46.5 µM | TGI (MDA-MB-435): > 100 µM | TGI (MOLT-4 leukemia): > 100 µM | TGI (NCI-H226 lung): > 100 µM | TGI (NCI-H460 lung): > 100 µM | TGI (NCI-H522 lung): 89.3 µM | TGI (NCI/ADR-RES ovarian): > 100 µM | TGI (OVCAR-3 ovarian): > 100 µM | TGI (OVCAR-4 ovarian): > 100 µM | TGI (OVCAR-5 ovarian): > 100 µM | TGI (OVCAR-8 ovarian): > 100 µM | TGI (PC-3 prostate): > 100 µM | TGI (RPMI-8226 leukemia): > 100 µM | TGI (RXF 393 renal): > 100 µM | TGI (SF-295 CNS): > 100 µM | TGI (SF-539 CNS): > 100 µM | TGI (SK-MEL-2 melanoma): > 100 µM | TGI (SK-MEL-28 melanoma): > 100 µM | TGI (SK-MEL-5 melanoma): > 100 µM | TGI (SK-OV-3 ovarian): 51.3 µM | TGI (SN12C renal): > 100 µM | TGI (SNB-19 CNS): > 100 µM | TGI (SNB-75 CNS): 75.8 µM | TGI (SR leukemia): > 100 µM | TGI (SW-620 colon): > 100 µM | TGI (TK-10 renal): > 100 µM | TGI (U251 CNS): > 100 µM | TGI (UACC-257 melanoma): > 100 µM | TGI (UACC-62 melanoma): > 100 µM | TGI (UO-31 renal): > 100 µM

O=C(O)C1CC[N-]CC1.O=C(O)C1CC[N-]CC1.[Cl][Pt+2]([Cl])([Cl])[Cl]
GI50 (RXF 393 renal): 34.2 µM

O=C(CSc1ccc(Cl)cc1)Nc1ccc(-c2nc3ccccc3s2)c(Cl)c1
GI50 (786-0 renal): 3.94 µM | TGI (786-0 renal): 24.7 µM | GI50 (A498 renal): 1.98 µM | TGI (A498 renal): 6.34 µM | GI50 (A549 NSCLC): 5.84 µM | TGI (A549 NSCLC): > 100 µM | GI50 (ACHN renal): 4.09 µM | TGI (ACHN renal): 36.9 µM | GI50 (BT-549 breast): 2.76 µM | TGI (BT-549 breast): 8.53 µM | GI50 (CAKI-1 renal): 2.53 µM | TGI (CAKI-1 renal): 10.3 µM | GI50 (CCRF-CEM leukemia): 3.58 µM | TGI (CCRF-CEM leukemia): > 100 µM | GI50 (COLO 205 colon): 2.88 µM | TGI (COLO 205 colon): 9.24 µM | GI50 (EKVX NSCLC): 4.1 µM | TGI (EKVX NSCLC): 40.3 µM | GI50 (HCC-2998 colon): 3.09 µM | TGI (HCC-2998 colon): 16.3 µM | GI50 (HCT-116 colon): 2.08 µM | TGI (HCT-116 colon): 5.45 µM | GI50 (HCT-15 colon): 3.62 µM | TGI (HCT-15 colon): > 100 µM | GI50 (HL-60(TB) leukemia): 13.4 µM | TGI (HL-60(TB) leukemia): > 100 µM | GI50 (HOP-62 NSCLC): 5.91 µM | TGI (HOP-62 NSCLC): 24.8 µM | GI50 (HS 578T breast): 2.56 µM | TGI (HS 578T breast): 7.99 µM | GI50 (HT29 colon): 6.86 µM | TGI (HT29 colon): > 100 µM | GI50 (IGROV1 ovarian): 0.744 µM | TGI (IGROV1 ovarian): 75.8 µM | GI50 (K-562 leukemia): 4.14 µM | TGI (K-562 leukemia): > 100 µM | GI50 (KM12 colon): 3.66 µM | TGI (KM12 colon): > 100 µM | GI50 (LOX IMVI melanoma): 5.07 µM | TGI (LOX IMVI melanoma): > 100 µM | GI50 (M14 melanoma): 4.87 µM | TGI (M14 melanoma): 33.8 µM | GI50 (MALME-3M melanoma): 4.77 µM | TGI (MALME-3M melanoma): 36.2 µM | GI50 (MCF7 breast): 4.67 µM | TGI (MCF7 breast): 39.2 µM | GI50 (MDA-MB-231 breast): 8.34 µM | TGI (MDA-MB-231 breast): 23.6 µM | GI50 (MDA-MB-435): 3.72 µM | TGI (MDA-MB-435): 35.4 µM | GI50 (MOLT-4 leukemia): 4.37 µM | TGI (MOLT-4 leukemia): > 100 µM | GI50 (NCI-H226 lung): 4.9 µM | TGI (NCI-H226 lung): 64.1 µM | GI50 (NCI-H23 lung): 2.23 µM | TGI (NCI-H23 lung): 5.56 µM | GI50 (NCI-H460 lung): 3.41 µM | TGI (NCI-H460 lung): 16 µM | GI50 (NCI/ADR-RES ovarian): 4.39 µM | TGI (NCI/ADR-RES ovarian): 32.6 µM | GI50 (OVCAR-3 ovarian): 2.43 µM | TGI (OVCAR-3 ovarian): 8.01 µM | GI50 (OVCAR-4 ovarian): 5.95 µM | TGI (OVCAR-4 ovarian): > 100 µM | GI50 (OVCAR-5 ovarian): 11.6 µM | TGI (OVCAR-5 ovarian): 55.4 µM | GI50 (OVCAR-8 ovarian): 5.09 µM | TGI (OVCAR-8 ovarian): > 100 µM | GI50 (PC-3 prostate): 2.42 µM | TGI (PC-3 prostate): 8.23 µM | GI50 (RPMI-8226 leukemia): 2.66 µM | TGI (RPMI-8226 leukemia): > 100 µM | GI50 (RXF 393 renal): 14.1 µM | TGI (RXF 393 renal): 55.8 µM | GI50 (SF-268 CNS): 3.24 µM | TGI (SF-268 CNS): 22.4 µM | GI50 (SF-295 CNS): 2 µM | TGI (SF-295 CNS): 5.42 µM | GI50 (SF-539 CNS): 14.5 µM | TGI (SF-539 CNS): 32.7 µM | GI50 (SK-MEL-2 melanoma): 3.82 µM | TGI (SK-MEL-2 melanoma): 15.7 µM | GI50 (SK-MEL-28 melanoma): 6.31 µM | TGI (SK-MEL-28 melanoma): 46.4 µM | GI50 (SK-MEL-5 melanoma): 10.4 µM | TGI (SK-MEL-5 melanoma): 23 µM | GI50 (SK-OV-3 ovarian): 13.7 µM | TGI (SK-OV-3 ovarian): 44.1 µM | GI50 (SN12C renal): 3.57 µM | TGI (SN12C renal): 72.8 µM | GI50 (SNB-19 CNS): 4.31 µM | TGI (SNB-19 CNS): 74.2 µM | GI50 (SNB-75 CNS): 29.1 µM | TGI (SNB-75 CNS): > 100 µM | GI50 (SW-620 colon): 3.67 µM | TGI (SW-620 colon): 83.4 µM | GI50 (T-47D breast): 2.54 µM | TGI (T-47D breast): 8.63 µM | GI50 (TK-10 renal): 5.3 µM | TGI (TK-10 renal): 40 µM | GI50 (U251 CNS): 3.71 µM | TGI (U251 CNS): 18.7 µM | GI50 (UACC-257 melanoma): 15.7 µM | TGI (UACC-257 melanoma): > 100 µM | GI50 (UACC-62 melanoma): 2.77 µM | TGI (UACC-62 melanoma): 15.1 µM | GI50 (UO-31 renal): 2.29 µM | TGI (UO-31 renal): 22.9 µM
